Test results as given in patent publication US20230117034A1, “PYRAZOLOTRIAZINES” (Bayer Aktiengesellschaft, priority 2019, published 2023).

Legend:
CDK12/CycK = CDK12/CycK (Homo sapiens, UniProt Q9NYV4); assay: CDK12/CycK high ATP kinase assay (TR-FRET, 2 mM ATP); type: biochemical; settings: 2 mM ATP (high ATP); median; read-out: CDK12/CyclinK, 2 mM ATP (high ATP), IC50-[mol/l] (median)
Outline: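 Read-out is TR-FRET (Eu-anti-rabbit IgG, anti-phospho-c-Myc Ser62 antibody, streptavidin-XL665) after EDTA stop. Reaction ran 60 min at 22 °C using 1 µM biotin-peptide and high ATP (2 mM) with roughly 0.75 nM recombinant CDK12/CycK, after 15 min compound pre-binding; normalised emission ratios yield IC50.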

CDK9/CycT1 = target: T1, CDK9/CycT1 (Homo sapiens, UniProt P50750); assay: CDK9/CycT1 high ATP kinase assay (TR-FRET, 2 mM ATP); type: biochemical; settings: 2 mM ATP (high ATP); median; read-out: CDK9/CyclinT1, 2 mM ATP (high ATP), IC50 (median)
T1 construct: Recombinant full-length His-tagged human CDK9 and CycT1; purchased Life Technologies PV4131; host or cells: insect cells
Outline: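 Full-length His-tagged human CDK9/CycT1 (insect cell, ~0.5 μg/mL) preincubated 15 min at 22 °C with compound in Tris pH 8.0, MgCl2, DTT buffer before reaction with biotinylated peptide substrate at high ATP (2 mM).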

[1] = target: T2, CDK12 (nuclear staining in CAL-120 cells) (Homo sapiens, UniProt Q9NYV4); assay: CDK12 nuclear protein level: immunofluorescence/high content analysis (CAL-120); type: cell-based; settings: for DC50: CAL-120 cells, 24 h, immunofluorescence, 50% reduction of nuclear CDK12 staining intensity, median, read-out: CDK12 degradation IF, DC50- [mol/l] (median); for (IC50 CDK12 high ATP) to (Degradation DC50 CDK12) ratio: ratio of IC50 CDK12 high ATP kinase assay to DC50 CDK12 degradation (IF, CAL-120)
T2 construct: endogenous in cells; host or cells: CAL-120 human breast cancer cells (DSMZ ACC 459)
Outline: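 DC50 is the degrader concentration that halves nuclear CDK12 immunofluorescence relative to controls, measured by high-content imaging. CAL-120 cells were exposed to compound for 24 h at 37 °C before PFA fixation, and signal was normalized to DMSO and control wells.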

Sequence of CDK12/CycK (Q9NYV4 with tags, fused parts or gaps): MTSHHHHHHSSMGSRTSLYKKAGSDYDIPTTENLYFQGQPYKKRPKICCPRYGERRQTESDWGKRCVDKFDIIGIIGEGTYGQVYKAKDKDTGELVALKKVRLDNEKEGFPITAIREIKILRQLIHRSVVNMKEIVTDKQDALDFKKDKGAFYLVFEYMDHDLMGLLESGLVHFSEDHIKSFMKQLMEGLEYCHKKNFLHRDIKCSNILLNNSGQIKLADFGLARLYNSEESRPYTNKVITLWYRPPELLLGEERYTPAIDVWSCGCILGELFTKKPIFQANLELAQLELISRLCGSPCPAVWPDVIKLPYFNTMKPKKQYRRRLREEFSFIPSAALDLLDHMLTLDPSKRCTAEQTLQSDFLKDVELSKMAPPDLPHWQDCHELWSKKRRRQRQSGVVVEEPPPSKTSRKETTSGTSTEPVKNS
Sequence of CDK12/CycK (O75909 1-300 partner limits assumed): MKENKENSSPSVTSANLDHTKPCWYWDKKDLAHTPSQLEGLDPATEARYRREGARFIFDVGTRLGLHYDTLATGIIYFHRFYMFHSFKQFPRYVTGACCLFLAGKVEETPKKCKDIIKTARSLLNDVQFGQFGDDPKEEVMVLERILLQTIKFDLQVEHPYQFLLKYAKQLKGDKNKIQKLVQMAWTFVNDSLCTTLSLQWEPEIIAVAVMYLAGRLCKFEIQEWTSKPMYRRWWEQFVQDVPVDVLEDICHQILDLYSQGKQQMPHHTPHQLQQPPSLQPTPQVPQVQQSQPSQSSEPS
T2 sequence (Q9NYV4 whole entry): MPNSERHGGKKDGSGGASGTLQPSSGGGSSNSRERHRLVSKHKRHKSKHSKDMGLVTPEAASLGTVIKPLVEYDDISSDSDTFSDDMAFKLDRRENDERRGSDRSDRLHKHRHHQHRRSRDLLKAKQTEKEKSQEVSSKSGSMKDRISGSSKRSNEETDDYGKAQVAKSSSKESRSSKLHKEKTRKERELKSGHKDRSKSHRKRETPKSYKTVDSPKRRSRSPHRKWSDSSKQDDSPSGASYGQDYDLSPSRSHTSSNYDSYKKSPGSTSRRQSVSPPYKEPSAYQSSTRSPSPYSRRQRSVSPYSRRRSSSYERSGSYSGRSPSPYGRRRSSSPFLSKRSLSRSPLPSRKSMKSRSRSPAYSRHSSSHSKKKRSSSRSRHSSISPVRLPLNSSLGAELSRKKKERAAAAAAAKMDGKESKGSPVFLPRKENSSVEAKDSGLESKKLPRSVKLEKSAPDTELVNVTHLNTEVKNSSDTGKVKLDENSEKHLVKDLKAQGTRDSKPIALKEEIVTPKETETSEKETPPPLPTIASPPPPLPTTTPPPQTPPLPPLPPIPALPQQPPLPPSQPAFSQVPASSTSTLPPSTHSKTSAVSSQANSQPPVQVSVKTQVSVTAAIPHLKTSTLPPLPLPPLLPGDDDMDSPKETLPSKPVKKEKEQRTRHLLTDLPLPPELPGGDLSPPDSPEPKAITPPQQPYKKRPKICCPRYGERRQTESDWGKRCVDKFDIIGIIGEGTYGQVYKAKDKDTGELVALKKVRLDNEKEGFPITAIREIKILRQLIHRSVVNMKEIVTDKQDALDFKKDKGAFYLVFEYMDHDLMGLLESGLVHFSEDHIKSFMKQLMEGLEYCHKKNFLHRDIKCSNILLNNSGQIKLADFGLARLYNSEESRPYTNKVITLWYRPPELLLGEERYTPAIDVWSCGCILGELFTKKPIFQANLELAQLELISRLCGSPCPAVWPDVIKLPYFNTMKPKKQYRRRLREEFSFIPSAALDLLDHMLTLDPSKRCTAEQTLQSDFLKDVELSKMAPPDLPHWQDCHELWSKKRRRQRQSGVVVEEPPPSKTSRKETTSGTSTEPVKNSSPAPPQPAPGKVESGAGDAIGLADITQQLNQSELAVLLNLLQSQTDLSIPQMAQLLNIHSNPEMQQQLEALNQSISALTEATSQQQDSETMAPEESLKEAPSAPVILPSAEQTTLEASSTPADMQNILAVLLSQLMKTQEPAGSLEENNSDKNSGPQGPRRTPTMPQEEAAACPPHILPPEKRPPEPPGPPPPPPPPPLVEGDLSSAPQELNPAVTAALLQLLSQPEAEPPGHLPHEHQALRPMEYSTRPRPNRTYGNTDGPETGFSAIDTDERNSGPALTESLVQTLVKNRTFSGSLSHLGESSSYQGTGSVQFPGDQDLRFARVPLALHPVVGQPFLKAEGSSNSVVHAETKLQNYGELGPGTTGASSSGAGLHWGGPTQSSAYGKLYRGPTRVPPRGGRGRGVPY
T2 sequence (O75909 whole entry partner): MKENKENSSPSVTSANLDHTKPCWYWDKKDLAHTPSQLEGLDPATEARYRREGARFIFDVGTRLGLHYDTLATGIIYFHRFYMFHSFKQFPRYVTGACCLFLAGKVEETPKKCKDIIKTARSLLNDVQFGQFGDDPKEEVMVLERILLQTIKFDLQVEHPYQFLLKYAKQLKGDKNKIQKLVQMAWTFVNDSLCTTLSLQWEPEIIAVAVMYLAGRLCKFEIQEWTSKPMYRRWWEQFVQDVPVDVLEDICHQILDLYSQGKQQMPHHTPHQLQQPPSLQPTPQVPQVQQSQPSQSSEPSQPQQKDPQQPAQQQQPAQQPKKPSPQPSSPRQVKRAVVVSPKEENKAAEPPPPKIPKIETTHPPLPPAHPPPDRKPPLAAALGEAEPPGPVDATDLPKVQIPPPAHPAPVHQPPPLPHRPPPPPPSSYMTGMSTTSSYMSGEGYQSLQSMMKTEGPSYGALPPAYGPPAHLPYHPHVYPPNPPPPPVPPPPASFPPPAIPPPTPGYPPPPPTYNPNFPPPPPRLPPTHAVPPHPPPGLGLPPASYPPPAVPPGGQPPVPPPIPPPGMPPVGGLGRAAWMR
T1 sequence (P50750 whole entry): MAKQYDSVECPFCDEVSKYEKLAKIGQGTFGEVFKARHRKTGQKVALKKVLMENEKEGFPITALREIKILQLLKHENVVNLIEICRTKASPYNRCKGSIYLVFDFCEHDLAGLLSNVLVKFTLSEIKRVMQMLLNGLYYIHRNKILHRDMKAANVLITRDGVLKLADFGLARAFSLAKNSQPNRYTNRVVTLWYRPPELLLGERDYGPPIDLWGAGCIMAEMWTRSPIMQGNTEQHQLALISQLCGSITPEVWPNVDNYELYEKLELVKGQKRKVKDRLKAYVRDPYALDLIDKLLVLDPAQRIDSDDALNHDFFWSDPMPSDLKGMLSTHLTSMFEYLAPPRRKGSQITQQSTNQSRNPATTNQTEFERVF
T1 sequence (O60563 whole entry partner): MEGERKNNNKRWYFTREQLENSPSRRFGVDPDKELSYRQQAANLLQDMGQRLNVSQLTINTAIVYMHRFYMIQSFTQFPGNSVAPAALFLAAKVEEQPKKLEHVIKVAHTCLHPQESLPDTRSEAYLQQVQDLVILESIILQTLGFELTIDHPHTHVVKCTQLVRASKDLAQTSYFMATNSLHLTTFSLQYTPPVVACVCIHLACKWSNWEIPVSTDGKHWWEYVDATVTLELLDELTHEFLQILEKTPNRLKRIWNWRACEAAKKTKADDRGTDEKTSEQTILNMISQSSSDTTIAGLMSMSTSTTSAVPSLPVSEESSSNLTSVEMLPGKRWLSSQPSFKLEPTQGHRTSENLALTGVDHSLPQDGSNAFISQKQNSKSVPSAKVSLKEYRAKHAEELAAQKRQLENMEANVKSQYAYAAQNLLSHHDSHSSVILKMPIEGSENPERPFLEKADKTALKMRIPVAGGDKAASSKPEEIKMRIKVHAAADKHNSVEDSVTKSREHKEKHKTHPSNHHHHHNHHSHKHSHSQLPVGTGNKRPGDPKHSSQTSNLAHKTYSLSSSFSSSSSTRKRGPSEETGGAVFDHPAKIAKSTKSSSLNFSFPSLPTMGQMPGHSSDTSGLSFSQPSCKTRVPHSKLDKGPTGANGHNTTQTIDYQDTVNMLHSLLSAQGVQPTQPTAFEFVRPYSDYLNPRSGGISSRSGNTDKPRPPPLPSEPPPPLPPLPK

IC50 (CDK12/CycK) [µM] | IC50 (CDK9/CycT1) [µM] | DC50 [1] [µM] | (IC50 CDK12 high ATP) to (Degradation DC50 CDK12) ratio [1] | Compound
9.51 | > 20 | 0.0168 | 565 | CCNc1nc(NCc2nc3ccccc3[nH]2)n2ncc(Br)c2n1 [Example 227, N4-(1H-benzimidazol-2-ylmethyl)-8-bromo-N2-ethyl-pyrazolo[1,5-a][1,3,5]triazine-2,4-diamine]
> 20 | > 20 | 0.0471 | >425 | OCCNc1nc(NCc2nc3ccccc3[nH]2)n2ncc(Br)c2n1 [Example 228, 2-[(4-{[(1H-benzimidazol-2-yl)methyl]amino}-8-bromopyrazolo[1,5-a][1,3,5]triazin-2-yl)amino]ethan-1-ol]
5.51 | > 20 | 0.00638 | 862 | CC(C)(O)CNc1nc(NCc2nc3ccccc3[nH]2)n2ncc(Br)c2n1 [Example 229, 1-[(4-{[(1H-benzimidazol-2-yl)methyl]amino}-8-bromopyrazolo[1,5-a][1,3,5]triazin-2-yl)amino]-2-methylpropan-2-ol]
> 20 | > 20 | 0.066 | >303 | COCCNc1nc(NCc2nc3ccccc3[nH]2)n2ncc(Br)c2n1 [Example 230, N4-(1H-benzimidazol-2-ylmethyl)-8-bromo-N2-(2-methoxyethyl)pyrazolo[1,5-a][1,3,5]triazine-2,4-diamine]
> 20 | > 20 | 0.0339 | >590 | CN1CCCC2CN(c3nc(NCc4nc5ccccc5[nH]4)n4ncc(Br)c4n3)CC21 (stereo not shown) [Example 231, N-[(1H-benzimidazol-2-yl)methyl]-8-bromo-2-(1-methyloctahydro-6H-pyrrolo[3,4-b]pyridin-6-yl)pyrazolo[1,5-a][1,3,5]triazin-4-amine]
7.54 | > 20 | 0.103 | 73 | CCN(C)c1nc(NCc2nc3ccccc3[nH]2)n2ncc(Br)c2n1 [Example 233, N4-(1H-benzimidazol-2-ylmethyl)-8-bromo-N2-ethyl-N2-methyl-pyrazolo[1,5-a][1,3,5]triazine-2,4-diamine]
4.86 | > 20 | 0.0103 | 472 | O[C@H]1C[C@@H](Nc2nc(NCc3nc4ccccc4[nH]3)n3ncc(Br)c3n2)C1 [Example 234, cis-3-[(4-{[(1H-benzimidazol-2-yl)methyl]amino}-8-bromopyrazolo[1,5-a][1,3,5]triazin-2-yl)amino]cyclobutan-1-ol]
> 20 | > 20 | 0.104 | >192 | Brc1cnn2c(NCc3nc4ccccc4[nH]3)nc(NCCN3CCCC3)nc12 [Example 235, N4-(1H-benzimidazol-2-ylmethyl)-8-bromo-N2-(2-pyrrolidin-1-ylethyl)pyrazolo[1,5-a][1,3,5]triazine-2,4-diamine]
> 17.9 | > 20 | 0.00718 |  | COC(C)(C)CNc1nc(NCc2nc3ccccc3[nH]2)n2ncc(Br)c2n1 [Example 236, N4-(1H-benzimidazol-2-ylmethyl)-8-bromo-N2-(2-methoxy-2-methyl-propyl)pyrazolo[1,5-a][1,3,5]triazine-2,4-diamine]
7.35 | > 20 | 0.128 | 58 | CN(CCO)c1nc(NCc2nc3ccccc3[nH]2)n2ncc(Br)c2n1 [Example 237, 2-[(4-{[(1H-benzimidazol-2-yl)methyl]amino}-8-bromopyrazolo[1,5-a][1,3,5]triazin-2-yl)(methyl)amino]ethan-1-ol]
1.79 | > 18.7 | 0.00649 | 276 | CN(CC(C)(C)O)c1nc(NCc2nc3ccccc3[nH]2)n2ncc(Br)c2n1 [Example 238, 1-[(4-{[(1H-benzimidazol-2-yl)methyl]amino}-8-bromopyrazolo[1,5-a][1,3,5]triazin-2-yl)(methyl)amino]-2-methylpropan-2-ol]
> 20 | > 20 | 0.347 | >58 | CN(CCN1CCCC1)c1nc(NCc2nc3ccccc3[nH]2)n2ncc(Br)c2n1 [Example 239, N4-(1H-benzimidazol-2-ylmethyl)-8-bromo-N2-methyl-N2-(2-pyrrolidin-1-ylethyl)pyrazolo[1,5-a][1,3,5]triazine-2,4-diamine]
> 20 | > 20 | 0.00556 | >3596 | CN1CC2CN(c3nc(NCc4nc5ccccc5[nH]4)n4ncc(Br)c4n3)CC2C1 (stereo not shown) [Example 240, N-(1H-benzimidazol-2-ylmethyl)-8-bromo-2-(2-methyl-1,3,3a,4,6,6a-hexahydropyrrolo[3,4-c]pyrrol-5-yl)pyrazolo[1,5-a][1,3,5]triazin-4-amine]
0.805 | > 20 | 0.00434 | 186 | FC(F)(F)c1cnn2c(NCc3nc4ccccc4[nH]3)nc(N3CCOCC3)nc12 [Example 241, N-[(1H-benzimidazol-2-yl)methyl]-2-(morpholin-4-yl)-8-(trifluoromethyl) pyrazolo[1,5-a][1,3,5]triazin-4-amine]
> 20 | > 20 | 0.107 | >188 | CN1CCN(c2nc(NCc3nc4ccccc4[nH]3)n3ncc(-c4ccncc4)c3n2)CC1 [Example 242, N-[(1H-benzimidazol-2-yl)methyl]-2-(4-methylpiperazin-1-yl)-8-(pyridin-4-yl)pyrazolo[1,5-a][1,3,5]triazin-4-amine]
> 20 | > 20 | 0.267 | >75 | Cc1cc(-c2cnn3c(NCc4nc5ccccc5[nH]4)nc(N4CCN(C)CC4)nc23)ccn1 [Example 243, N-[(1H-benzimidazol-2-yl)methyl]-2-(4-methylpiperazin-1-yl)-8-(2-methylpyridin-4-yl)pyrazolo[1,5-a][1,3,5]triazin-4-amine]

Compound | IC50 (CDK12/CycK) [µM] | IC50 (CDK9/CycT1) [µM] | DC50 [1] [µM] | (IC50 CDK12 high ATP) to (Degradation DC50 CDK12) ratio [1]
CN1CC2CCC(C1)N2c1nc(NCc2nc3ccccc3[nH]2)n2ncc(Br)c2n1 [Example 226, N-(1H-benzimidazol-2-ylmethyl)-8-bromo-2-(3-methyl-3,8-diazabicyclo[3.2.1]octan-8-yl)pyrazolo[1,5-a][1,3,5]triazin-4-amine] | > 20 | > 20 | 0.0276 | >725
Brc1cnn2c(NCc3nc4ccccc4[nH]3)nc(N3CC4CCC(C3)N4)nc12 [Example 232, N-(1H-benzimidazol-2-ylmethyl)-8-bromo-2-(3,8-diazabicyclo[3.2.1]octan-3-yl)pyrazolo[1,5-a][1,3,5]triazin-4-amine] | 5.28 | > 20 | > 0.0036 | 
